Data from patent publication US20230250106A1, “COMPOUNDS AND COMPOSITIONS FOR TREATING CONDITIONS ASSOCIATED WITH STING ACTIVITY” (IFM Due, Inc., priority 2020, published 2023).

These molecules were tested on STING pathway (assay: STING reporter assay: luciferase reporter activity in THP1-Dual KO-IFNAR2 cells activated with 2'3'cGAMP). Conditions: Homo sapiens, 2'3'cGAMP 15 μM, 24 h, read-out: hSTING EC50.
Format: cell-based
Description: STING pathway activation by the compounds described herein was measured using THP1-Dual™ cells (KO-IFNAR2).
THP1-Dual™ KO-IFNAR2 Cells (obtained from invivogen) were maintained in RPMI, 10% FCS, 5 ml P/S, 2 mM L-glut, 10 mM Hepes, and 1 mM sodium pyruvate. Compounds were spotted in empty 384 well tissue culture plates (Greiner 781182) by Echo for a final concentration of 0.0017-100 μM. Cells were plated into the TC plates at 40 μL per well, 2×10E6 cells/mL. For activation with STING ligand, 2′3′cGAMP (MW 718.38, obtained from Invivogen), was prepared in Optimem media.
The following solutions were prepared for each 1×384 plate: • Solution A: 2 mL Optimem with one of the following stimuli: • 60 μL of 10 mM 2′3′cGAMP→150 μM stock • Solution B: 2 mL Optimem with 60 μL Lipofectamine 2000→Incubate 5 min at RT
2 mL of solution A and 2 ml Solution B was mixed and incubated for 20 min at room temperature (RT). 20 μL of transfection solution (A+B) was added on top of the plated cells, with a final 2′3′cGAMP concentration of 15 μM. The plates were then centrifuged immediately at 340 g for 1 minute, after which they were incubated at 37° C., 5% CO2,>98% humidity for 24 h. Luciferase reporter activity was then measured. EC50 values were calculated by using standard methods known in the art.
Luciferase reporter assay: 10 μL of supernatant from the assay was transferred to white 384-plate with flat bottom and squared wells. One pouch of QUANTI-Luc™ Plus was dissolved in 25 mL of water. 100 μL of QLC Stabilizer per 25 mL of QUANTI-Luc™ Plus solution was added. 50 μL of QUANTI-Luc™ Plus/QLC solution per well was then added. Luminescence was measured on a Platereader (e.g., Spectramax I3X (Molecular Devices GF3637001)).
Luciferase reporter activity was then measured. EC50 values were calculated by using standard methods known in the art.
With `O=C(Nc1c[nH]c2cc(F)c(F)cc12)c1ccc(OC2CCCCC2)cc1` [Compound 196, 4-(cyclohexyloxy)-N-(5,6-difluoro-1H-indol-3-yl)benzamide] the EC50 was 0.2 to 1 µM. `O=C(Nc1c[nH]c2cc(F)c(F)cc12)c1ccnc(CN2CC(F)(F)C2)c1` [Compound 257, N-(5,6-difluoro-1H-indol-3-yl)-2-((3,3-difluoroazetidin-1-yl)methyl)isonicotinamide] showed an EC50 of 5 to 100 µM. For `Cc1ncc(C(=O)Nc2c[nH]c3cc(F)c(F)cc23)cc1N1CCC(F)(F)CC1` [Compound 256, N-(5,6-difluoro-1H-indol-3-yl)-5-(4,4-difluoropiperidin-1-yl)-6-methylnicotinamide], the EC50 was 1 to 5 µM. In the case of `O=C(Nc1c[nH]c2cc(F)c(F)cc12)c1ccc(OCCOC(F)(F)F)c(F)c1` [Compound 262, N-(5,6-difluoro-1H-indol-3-yl)-3-fluoro-4-(2-(trifluoromethoxy)ethoxy)benzamide], the EC50 is reported as 0.2 to 1 µM. `O=C(Nc1c[nH]c2cc(F)c(F)cc12)c1ccc(OCCCC(F)(F)F)cn1` [Compound 139, N-(5,6-difluoro-1H-indol-3-yl)-5-(4,4,4-trifluorobutoxy)picolinamide] was tested, and the EC50 was 0.2 to 1 µM. `O=C(Nc1c[nH]c2ccc(F)cc12)c1ccc(OCCCC(F)(F)F)c(F)c1` [Compound 146, 3-fluoro-N-(5-fluoro-1H-indol-3-yl)-4-(4,4,4-trifluorobutoxy)benzamide] showed an EC50 of 0.04 to 0.2 µM. In the case of `COCCO[C@@H]1CCN(c2ncc(C(=O)Nc3c[nH]c4cc(F)c(F)cc34)cc2C)C1` [Compound 184, (R)-N-(5,6-difluoro-1H-indol-3-yl)-6-(3-(2-methoxyethoxy)pyrrolidin-1-yl)-5-methylnicotinamide], the EC50 is reported as 1 to 5 µM. Molecule `O=C(Nc1c[nH]c2cc(F)c(F)cc12)c1ccc(C2CCC(F)(F)CC2)cc1` [Compound 158, N-(5,6-difluoro-1H-indol-3-yl)-4-(4,4-difluorocyclohexyl)benzamide] has an EC50 of 0.04 to 0.2 µM. With `Cc1cc(C(=O)Nc2c[nH]c3cc(F)c(F)cc23)cc(N2CCC(F)(F)CC2)n1` [Compound 175, N-(5,6-difluoro-1H-indol-3-yl)-2-(4,4-difluoropiperidin-1-yl)-6-methylisonicotinamide] the EC50 was 5 to 100 µM. `O=C(Nc1c[nH]c2cc(F)c(F)cc12)c1ccc(C2(O)CCC(F)(F)CC2)nc1` [Compound 250, 6-(4,4-difluoro-1-hydroxycyclohexyl)-N-(5,6-difluoro-1H-indol-3-yl)nicotinamide] was tested, and the EC50 was 1 to 5 µM. Work on `O=C(Nc1c[nH]c2cc(F)ccc12)c1ccc(OCCCC(F)(F)F)c(F)c1` [Compound 192, 3-fluoro-N-(6-fluoro-1H-indol-3-yl)-4-(4,4,4-trifluorobutoxy)benzamide] yielded an EC50 of 0.2 to 1 µM. In the case of `COCCOc1ncc(C(=O)Nc2c[nH]c3cc(F)c(F)cc23)cc1C` [Compound 226, N-(5,6-difluoro-1H-indol-3-yl)-6-(2-methoxyethoxy)-5-methylnicotinamide], the EC50 is reported as 0.2 to 1 µM. `O=C(Nc1c[nH]c2cc(F)c(F)cc12)c1cnc(C2CC(F)(F)C2)c(Cl)c1` [Compound 240, 5-chloro-N-(5,6-difluoro-1H-indol-3-yl)-6-(3,3-difluorocyclobutyl)nicotinamide] showed an EC50 of 0.2 to 1 µM. `CCCCOc1ccc(C(=O)Nc2c[nH]c3cc(F)c(F)cc23)cc1` [Compound 132, 4-butoxy-N-(5,6-difluoro-1H-indol-3-yl)benzamide] was tested, and the EC50 was 0.2 to 1 µM. In the case of `COCCOc1ccc(C(=O)Nc2c[nH]c3cc(F)c(F)cc23)cn1` [Compound 157, N-(5,6-difluoro-1H-indol-3-yl)-6-(2-methoxyethoxy)nicotinamide], the EC50 is reported as 0.2 to 1 µM. In the case of `CC(C)Oc1ccc(C(=O)Nc2c[nH]c3cc(F)c(F)cc23)cn1` [Compound 265, N-(5,6-difluoro-1H-indol-3-yl)-6-(propan-2-yloxy)pyridine-3-carboxamide], the EC50 is reported as 0.2 to 1 µM. `O=C(Nc1c[nH]c2cc(F)c(F)cc12)c1ccc(OCc2ccccc2)cc1` [Compound 136, 4-(benzyloxy)-N-(5,6-difluoro-1H-indol-3-yl)benzamide] gave an EC50 of 0.2 to 1 µM. In the case of `CCC(O)c1cc(C(=O)Nc2c[nH]c3cc(F)c(F)cc23)ccn1` (stereo not shown) [Compound 241, N-(5,6-difluoro-1H-indol-3-yl)-2-(1-hydroxypropyl)isonicotinamide], the EC50 is reported as 5 to 100 µM. `CCOc1cc(F)c(C(=O)Nc2c[nH]c3cc(F)c(F)cc23)c(F)c1` [Compound 199, N-(5,6-difluoro-1H-indol-3-yl)-4-ethoxy-2,6-difluorobenzamide] was tested, and the EC50 was 0.2 to 1 µM. `O=C(Nc1c[nH]c2cc(F)c(F)cc12)c1ccc(C2CC(F)(F)C2)nc1` [Compound 216, N-(5,6-difluoro-1H-indol-3-yl)-6-(3,3-difluorocyclobutyl)nicotinamide] showed an EC50 of 0.2 to 1 µM. For `O=C(Nc1c[nH]c2ccc(Cl)cc12)c1ccc(OCCCC(F)(F)F)c(F)c1` [Compound 153, N-(5-chloro-1H-indol-3-yl)-3-fluoro-4-(4,4,4-trifluorobutoxy)benzamide], the EC50 was 0.2 to 1 µM. `O=C(Nc1c[nH]c2cc(F)c(F)cc12)c1ccc(CN2CC(F)C2)c(F)c1` [Compound 260, N-(5,6-difluoro-1H-indol-3-yl)-3-fluoro-4-((3-fluoroazetidin-1-yl)methyl)benzamide] showed an EC50 of 0.2 to 1 µM. Molecule `O=C(Nc1c[nH]c2cc(F)c(F)cc12)c1ccc(OCC(F)(F)F)cc1` [Compound 152, N-(5,6-difluoro-1H-indol-3-yl)-4-(2,2,2-trifluoroethoxy)benzamide] has an EC50 of 0.2 to 1 µM. In the case of `O=C(Nc1c[nH]c2cc(F)c(F)cc12)c1cc(CCO)cc(C(F)(F)F)c1` [Compound 279, N-(5,6-difluoro-1H-indol-3-yl)-3-(2-hydroxyethyl)-5-(trifluoromethyl)benzamide], the EC50 is reported as 1 to 5 µM. In the case of `O=C(Nc1c[nH]c2cc(F)c(F)cc12)c1ccc(OCC(F)(F)F)c(F)c1` [Compound 134, N-(5,6-difluoro-1H-indol-3-yl)-3-fluoro-4-(2,2,2-trifluoroethoxy)benzamide], the EC50 is reported as 0.2 to 1 µM. In the case of `O=C(Nc1c[nH]c2cc(F)c(F)cc12)c1ccc(C(F)(F)F)c(CCO)c1` [Compound 280, N-(5,6-difluoro-1H-indol-3-yl)-3-(2-hydroxyethyl)-4-(trifluoromethyl)benzamide], the EC50 is reported as 0.2 to 1 µM. With `O=C(Nc1c[nH]c2cc(F)c(F)cc12)c1ccc(OC(F)(F)F)cc1` [Compound 135, N-(5,6-difluoro-1H-indol-3-yl)-4-(trifluoromethoxy)benzamide] the EC50 was 0.2 to 1 µM. `O=C(Nc1c[nH]c2ccc(Cl)cc12)c1ccc(N2C[C@@H]3[C@@H](COCC(F)(F)F)[C@@H]3C2)c(F)c1` [Compound 225, N-(5-chloro-1H-indol-3-yl)-3-fluoro-4-((1R,5S,6r)-6-((2,2,2-trifluoroethoxy)methyl)-3-azabicyclo[3.1.0]hexan-3-yl)benzamide] was tested, and the EC50 was 0.04 to 0.2 µM. Molecule `O=C(Nc1c[nH]c2cc(F)c(F)cc12)c1ccc(OC(F)F)c(OCC2CC2)c1` [Compound 127, 3-(cyclopropylmethoxy)-N-(5,6-difluoro-1H-indol-3-yl)-4-(difluoromethoxy)benzamide] has an EC50 of 0.2 to 1 µM. `O=C(Nc1c[nH]c2cc(F)c(F)cc12)c1ccnc(C(O)C(F)(F)F)c1` (stereo not shown) [Compound 235, N-(5,6-difluoro-1H-indol-3-yl)-2-(2,2,2-trifluoro-1-hydroxyethyl)isonicotinamide] showed an EC50 of 5 to 100 µM. Molecule `Cc1cc(N2CC(F)(F)C2)ncc1C(=O)Nc1c[nH]c2ccc(Cl)cc12` [Compound 272, N-(5-chloro-1H-indol-3-yl)-6-(3,3-difluoroazetidin-1-yl)-4-methylnicotinamide] has an EC50 of 0.2 to 1 µM. `CC(O)c1cc(C(=O)Nc2c[nH]c3cc(F)c(F)cc23)cc(C(F)(F)F)c1` (stereo not shown) [Compound 275, N-(5,6-difluoro-1H-indol-3-yl)-3-(1-hydroxyethyl)-5-(trifluoromethyl)benzamide] showed an EC50 of 1 to 5 µM. With `CC(C)n1cc(-c2ccc3[nH]cc(NC(=O)c4cnc(N5CCC(F)(F)CC5)c(Cl)c4)c3c2)cn1` [Compound 102, 5-chloro-6-(4,4-difluoropiperidin-1-yl)-N-(5-(1-isopropyl-1H-pyrazol-4-yl)-1H-indol-3-yl)nicotinamide] the EC50 was 0.2 to 1 µM. For `O=C(Nc1c[nH]c2cc(F)c(F)cc12)c1ccc(CN2CC(F)(F)C2)c(F)c1` [Compound 181, N-(5,6-difluoro-1H-indol-3-yl)-4-((3,3-difluoroazetidin-1-yl)methyl)-3-fluorobenzamide], the EC50 was 0.2 to 1 µM. `O=C(Nc1c[nH]c2cc(F)c(F)cc12)c1ccc(Cl)c(OCCCC(F)(F)F)c1` [Compound 170, 4-chloro-N-(5,6-difluoro-1H-indol-3-yl)-3-(4,4,4-trifluorobutoxy)benzamide] was tested, and the EC50 was 0.2 to 1 µM. Molecule `O=C(Nc1c[nH]c2cc(F)c(F)cc12)c1ccnc(Oc2ccccc2)c1` [Compound 263, N-(5,6-difluoro-1H-indol-3-yl)-2-phenoxypyridine-4-carboxamide] has an EC50 of 0.2 to 1 µM. In the case of `N#Cc1cc(C(=O)Nc2c[nH]c3cc(F)c(F)cc23)ccc1OCCCC(F)(F)F` [Compound 150, 3-cyano-N-(5,6-difluoro-1H-indol-3-yl)-4-(4,4,4-trifluorobutoxy)benzamide], the EC50 is reported as 0.04 to 0.2 µM.
